How the values were obtained:
Assay type in all cases: in vivo
Conditions in all cases: 50 ppm, 100 = 100% disease control, 0 = no control
Septoria tritici = assay: Test A: wheat leaf blotch, preventive spray on wheat seedlings
Text: (§1) General protocol for preparing test suspensions for Tests A-F: the test compounds were first dissolved in acetone in an amount equal to 3% of the final volume and then suspended at the desired concentration (in ppm) in acetone and purified water (50/50 mix by volume) containing 250 ppm of the surfactant PEG400 (polyhydric alcohol esters). The resulting test suspensions were then used in Tests A-F.
(§2) The test solution was sprayed to the point of run-off on wheat seedlings. The following day the seedlings were inoculated with a spore suspension of Septoria tritici (the causal agent of wheat leaf blotch) and incubated in a saturated atmosphere at 24° C. for 48 h, and then moved to a growth chamber at 20° C. for 17 days, after which time disease ratings were made.
(§3) A rating of 100 indicates 100% disease control and a rating of 0 indicates no disease control (relative to the controls). A dash (−) indicates the compound was not tested.

[1] = test system: Puccinia recondita f. sp. tritici; assay: Test B: wheat leaf rust, preventive spray on wheat seedlings
Text: as §1
as §2, with “Puccinia recondita f. sp.” for “Septoria”, “rust)” for “blotch)”, “20°” for “24°”, “24” for “48”, “7” for “17”
as §3

[2] = test system: Blumeria graminis f. sp. tritici; assay: Test C: wheat powdery mildew, preventive spray on wheat seedlings
Text: as §1
The test suspension was sprayed to the point of run-off on wheat seedlings. The following day the seedlings were inoculated with a spore dust of Blumeria graminis f. sp. tritici, (also known as Erysiphe graminis f. sp. tritici, the causal agent of wheat powdery mildew) and incubated in a growth chamber at 20° C. for 8 days, after which time visual disease ratings were made.
as §3

Phakopsora pachyrhizi = assay: Test D: Asian soybean rust, preventive spray on soybean seedlings
Text: as §1
The test solution was sprayed to the point of run-off on soybean seedlings. The following day the seedlings were inoculated with a spore suspension of Phakopsora pachyrhizi (the causal agent of Asian soybean rust) and incubated in a saturated atmosphere at 22° C. for 24 h and then moved to a growth chamber at 22° C. for 8 days, after which time visual disease ratings were made.
as §3

Botrytis cinerea = assay: Test E: tomato Botrytis, preventive spray on tomato seedlings
Text: as §1
(§4) The test suspension was sprayed to the point of run-off on tomato seedlings. The following day the seedlings were inoculated with a spore suspension of Botrytis cinerea (the causal agent of tomato Botrytis) and incubated in a saturated atmosphere at 20° C. for 48 h, and then moved to a growth chamber at 24° C. for 3 days, after which time visual disease ratings were made.
as §3

Alternaria solani = assay: Test F: tomato early blight, preventive spray on tomato seedlings
Text: as §1
as §4, with “Alternaria solani” for “Botrytis cinerea”, “early blight)” for “Botrytis)”, “27°” for “20°”, “20°” for “24°”
as §3

| Compound | Test A disease control rating (Septoria tritici) [%] | Test B disease control rating [1] [%] | Test C disease control rating [2] [%] | Test D disease control rating (Phakopsora pachyrhizi) [%] | Test E disease control rating (Botrytis cinerea) [%] | Test F disease control rating (Alternaria solani) [%] | pest or weed control at 50 ppm (Septoria tritici; Zymoseptoria tritici, 456 h, read-out: Test A disease control rating) [%] | pest or weed control at 50 ppm ([1]; 192 h, read-out: Test B disease control rating) [%] | pest or weed control at 50 ppm (Phakopsora pachyrhizi; 216 h, read-out: Test D disease control rating) [%] | pest or weed control at 50 ppm (Botrytis cinerea; 120 h, read-out: Test E disease control rating) [%] | pest or weed control at 50 ppm (Alternaria solani; 120 h, read-out: Test F disease control rating) [%] |
| --- | --- | --- | --- | --- | --- | --- | --- | --- | --- | --- | --- |
| Cc1nn(C)c(Nc2c(Cl)cc(Br)cc2[N+](=O)[O-])c1-c1ccc(F)cc1F [compound 55] | 100 | 99 | 90 | 0 | 34 | 0 | – | – | – | – | – |
| Cc1cc(Cl)cc([N+](=O)[O-])c1Nc1c(-c2ccc(F)cc2Cl)c(C)nn1C [compound 33] | 100 | 100 | 99 | 92 | 99 | 85 | – | – | – | – | – |
| CCc1nn(C)c(Nc2ccc(C)cc2[N+](=O)[O-])c1-c1ccc(F)cc1Cl [compound 174] | 100 | 95 | 92 | 0 | 99 | 39 | – | – | – | – | – |
| Cc1cccc([N+](=O)[O-])c1Nc1c(-c2c(F)cc(F)cc2F)c(C)nn1C [compound 167] | 100 | 100 | 98 | 65 | 95 | 98 | – | – | – | – | – |
| COc1ccc(-c2c(C)nn(C)c2Nc2ccc(Cl)cc2[N+](=O)[O-])c(Cl)c1 [compound 74] | 99 | 86 | 81 | 74 | 99 | 85 | – | – | – | – | – |
| Cc1ccc(Nc2c(-c3ccc(F)cc3F)c(C)nn2C)c([N+](=O)[O-])c1 [compound 107] | – | 91 | 61 | 0 | 98 | 0 | – | – | – | – | – |
| COc1ccc(Nc2c(-c3ccc(Cl)cc3Cl)c(C)nn2C)c([N+](=O)[O-])c1 [compound 142] | 100 | 91 | 39 | 25 | 99 | 80 | – | – | – | – | – |
| Cc1nn(C)c(Nc2c(Cl)cc(Cl)cc2[N+](=O)[O-])c1-c1ccc(F)cc1F [compound 101] | 100 | 99 | 89 | 44 | 99 | 0 | – | – | – | – | – |
| COc1ccc(Nc2c(-c3ccc(C#N)cc3F)c(C)nn2C)c([N+](=O)[O-])c1 [compound 179] | 100 | 96 | 93 | 0 | 99 | 85 | – | – | – | – | – |
| COc1cc(F)c(-c2c(C)nn(C)c2Nc2c(Cl)cc(Cl)cc2[N+](=O)[O-])c(F)c1 [compound 82] | 100 | 100 | 58 | 59 | 96 | 97 | – | – | – | – | – |
| COc1cc(F)c(-c2c(C)nn(C)c2Nc2c(F)cc(Cl)cc2[N+](=O)[O-])c(F)c1 [compound 86] | 100 | 100 | 98 | 77 | 96 | 99 | – | – | – | – | – |
| Cc1nn(C)c(Nc2c(F)cc(F)cc2[N+](=O)[O-])c1-c1ccc(Cl)cc1F [compound 13] | 100 | 99 | 97 | 19 | 68 | 89 | – | – | – | – | – |
| Cc1nn(C)c(Nc2c(F)cc(Cl)cc2[N+](=O)[O-])c1-c1ccc(Cl)cc1Cl [compound 11] | 100 | 98 | 97 | 0 | 98 | 99 | – | – | – | – | – |
| Cc1nn(C)c(Nc2ccc(OC(C)C)cc2[N+](=O)[O-])c1-c1ccc(F)cc1Cl [compound 104] | 60 | 0 | 72 | 0 | 0 | 0 | – | – | – | – | – |
| CCc1nn(C)c(Nc2ccc(OC)cc2[N+](=O)[O-])c1-c1ccc(F)cc1Cl [compound 173] | 100 | 100 | 98 | 0 | 98 | 93 | – | – | – | – | – |
| COc1ccc(-c2c(C)nn(C)c2Nc2c(F)cccc2[N+](=O)[O-])c(C)c1 [compound 48] | 100 | 95 | 89 | 0 | 97 | 97 | – | – | – | – | – |
| Cc1nn(C)c(Nc2ccccc2[N+](=O)[O-])c1-c1c(F)cc(Cl)cc1F [compound 168] | 100 | 74 | 97 | 0 | 99 | 40 | – | – | – | – | – |
| COc1cc(F)c(-c2c(C)nn(C)c2Nc2c(F)cc(F)cc2[N+](=O)[O-])c(F)c1 [compound 84] | 100 | 100 | 99 | 48 | 90 | 99 | – | – | – | – | – |
| COc1ccc(Nc2c(-c3ccc(F)cc3F)c(C)nn2C)c([N+](=O)[O-])c1 [compound 88] | – | 97 | 84 | 0 | 99 | 9 | – | – | – | – | – |
| COc1ccc(Nc2c(-c3c(F)cccc3F)c(C)nn2C)c([N+](=O)[O-])c1 [compound 87] | – | 99 | 98 | 0 | 98 | 93 | – | – | – | – | – |
| CCc1ccc(Nc2c(-c3ccc(F)cc3Cl)c(C)nn2C)c([N+](=O)[O-])c1 [compound 6] | – | 74 | 27 | 0 | 55 | 0 | – | – | – | – | – |
| COc1cc(F)c(Nc2c(-c3ccc(F)cc3F)c(C)nn2C)c([N+](=O)[O-])c1 [Compound 57, 4-(2,4-difluorophenyl)-N-(2-fluoro-4-methoxy-6-nitrophenyl)-1,3-dimethyl-1H-pyrazol-5-amine] | – | – | – | – | – | – | 100 | 100 | 96 | 100 | 100 |
| Cc1ccc(Nc2c(-c3c(F)cc(F)cc3Cl)c(C)nn2C)c([N+](=O)[O-])c1 [compound 106] | – | 100 | 98 | 0 | 99 | 68 | – | – | – | – | – |
| COc1ccc(Nc2c(-c3c(F)cc(F)cc3Cl)c(C)nn2C)c([N+](=O)[O-])c1 [compound 89] | – | 100 | 99 | 80 | 99 | 99 | – | – | – | – | – |

— US20230148599A1, “FUNGICIDAL MIXTURES CONTAINING PYRAZOLE DERIVATIVES” (FMC Corporation, priority 2020, published 2023)
